Our source for the EC50 values is patent US10676431B2, “Phenylpyrrolidinone formyl peptide 2 receptor agonists” (BRISTOL-MYERS SQUIBB COMPANY, priority 2018, dated 2020).

Molecules are shown by their SMILES. Bounds are passed on as bounds.

Test [1] has as its target human FPR1 (Homo sapiens (Human), UniProt P21462). Kind of test: FPR1 cyclic adenosine monophosphate (cAMP) assay. It counts as cell-based. The settings on record: CHO cells overexpressing human FPR1; forskolin 10 μM, IBMX 200 μM; inhibition of cAMP production, HTRF; read-out: hFPR1 cAMP EC50. The protocol: FPR2 and FPR1 Cyclic Adenosine Monophosphate (cAMP) Assays. A mixture of forskolin (5 μM final for FPR2 or 10 μM final for FPR1) and IBMX (200 μM final) were added to 384-well Proxiplates (Perkin-Elmer) pre-dotted with test compounds in DMSO (1% final) at final concentrations in the range of 0.020 nM to 100 μM. Chinese Hamster Ovary cells (CHO) overexpressing human FPR1 or human FPR2 receptors were cultured in F-12 (Ham's) medium supplemented with 10% qualified FBS, 250 μg/ml zeocin and 300 μg/ml hygromycin (Life Technologies). Reactions were initiated by adding 2,000 human FPR2 cells per well or 4,000 human FPR1 cells per well in Dulbecco's PBS (with calcium and magnesium) (Life Technologies) supplemented with 0.1% BSA (Perkin-Elmer). The reaction mixtures were incubated for 30 min at room temperature. The level of intracellular cAMP was determined using the HTRF HiRange cAMP assay reagent kit (Cisbio) according to manufacturer's instruction. Solutions of cryptate conjugated anti-cAMP and d2 fluorophore-labelled cAMP were made in a supplied lysis buffer separately. Upon completion of the reaction, the cells were lysed with equal volume of the d2-cAMP solution and anti-cAMP solution. […] The potency and activity of a compound to inhibit cAMP production was then determined by fitting to a 4-parametric logistic equation from a plot of cAMP level versus compound concentrations.

Test [2] has as its target human FPR2 (Homo sapiens (Human), UniProt P25090). In words: FPR2 cyclic adenosine monophosphate (cAMP) assay. The settings on record: CHO cells overexpressing human FPR2; forskolin 5 μM, IBMX 200 μM; inhibition of cAMP production, HTRF; read-out: hFPR2 cAMP2 EC50. The class given is cell-based. How it is done:
FPR2 and FPR1 Cyclic Adenosine Monophosphate (cAMP) Assays. A mixture of forskolin (5 μM final for FPR2 or 10 μM final for FPR1) and IBMX (200 μM final) were added to 384-well Proxiplates (Perkin-Elmer) pre-dotted with test compounds in DMSO (1% final) at final concentrations in the range of 0.020 nM to 100 μM. Chinese Hamster Ovary cells (CHO) overexpressing human FPR1 or human FPR2 receptors were cultured in F-12 (Ham's) medium supplemented with 10% qualified FBS, 250 μg/ml zeocin and 300 μg/ml hygromycin (Life Technologies). Reactions were initiated by adding 2,000 human FPR2 cells per well or 4,000 human FPR1 cells per well in Dulbecco's PBS (with calcium and magnesium) (Life Technologies) supplemented with 0.1% BSA (Perkin-Elmer). The reaction mixtures were incubated for 30 min at room temperature. The level of intracellular cAMP was determined using the HTRF HiRange cAMP assay reagent kit (Cisbio) according to manufacturer's instruction. Solutions of cryptate conjugated anti-cAMP and d2 fluorophore-labelled cAMP were made in a supplied lysis buffer separately. Upon completion of the reaction, the cells were lysed with equal volume of the d2-cAMP solution and anti-cAMP solution. After a 1-h room temperature incubation, time-resolved fluorescence intensity was measured using the Envision (Perkin-Elmer) at 400 nm excitation and dual emission at 590 nm and 665 nm. A calibration curve was constructed with an external cAMP standard at concentrations ranging from 1 μM to 0.1 pM by plotting the fluorescent intensity ratio from 665 nm emission to the intensity from the 590 nm emission against cAMP concentrations. The potency and activity of a compound to inhibit cAMP production was then determined by fitting to a 4-parametric logistic equation from a plot of cAMP level versus compound concentrations.
A general note: Cyclic AMP is a second messenger, typically raised through Gs and lowered through Gi signalling.

Sequence of human FPR2 (P25090 whole entry): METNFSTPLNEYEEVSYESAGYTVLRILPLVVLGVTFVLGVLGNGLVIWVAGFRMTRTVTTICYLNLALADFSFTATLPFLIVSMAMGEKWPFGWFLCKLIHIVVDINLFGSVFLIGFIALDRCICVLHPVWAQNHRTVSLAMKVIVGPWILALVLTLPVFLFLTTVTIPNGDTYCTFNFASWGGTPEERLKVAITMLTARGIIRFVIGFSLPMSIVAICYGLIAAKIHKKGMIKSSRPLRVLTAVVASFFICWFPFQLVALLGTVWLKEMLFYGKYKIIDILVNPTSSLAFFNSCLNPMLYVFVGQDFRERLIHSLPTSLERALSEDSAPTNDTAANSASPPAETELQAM
Sequence of human FPR1 (P21462 whole entry): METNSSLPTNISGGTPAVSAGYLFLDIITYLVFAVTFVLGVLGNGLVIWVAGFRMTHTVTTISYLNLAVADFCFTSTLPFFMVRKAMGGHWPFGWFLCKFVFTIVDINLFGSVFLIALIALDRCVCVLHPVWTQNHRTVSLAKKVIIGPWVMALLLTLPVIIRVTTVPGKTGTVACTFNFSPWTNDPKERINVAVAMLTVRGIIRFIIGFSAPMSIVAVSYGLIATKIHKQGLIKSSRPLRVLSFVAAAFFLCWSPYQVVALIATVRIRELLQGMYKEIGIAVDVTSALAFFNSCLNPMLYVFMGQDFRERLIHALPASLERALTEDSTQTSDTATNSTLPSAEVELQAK

Usually EC50 stands for the concentration giving half of the maximal effect. As to `CP(C)(=O)c1ccccc1-c1ccc(N2CC[C@@H](NC(=O)Nc3ncc(C(F)(F)F)cc3F)C2=O)c(F)c1F` [Example 55], the 50% effective concentration (EC50) in test [1] is more than 10000 nM; in test [2], 22 nM.
On to `CP(C)(=O)c1ccccc1-c1ccc(N2CC[C@@H](NC(=O)Nc3ncc(Cl)cc3F)C2=O)c(F)c1F` [Example 56], for which the concentration for a half-maximal effect (EC50) in test [1] was found to be 7700 nM; in test [2], 7.5 nM.
Consider `CP(C)(=O)c1ccccc1-c1ccc(N2CC[C@@H](NC(=O)Nc3ccc(C(F)(F)F)cc3F)C2=O)c(F)c1F` [Example 57, (R)-1-(1-(2′-(dimethylphosphoryl)-2,3-difluoro-[1,1′-biphenyl]-4-yl)-2-oxopyrrolidin-3-yl)-3-(2-fluoro-4-(trifluoromethyl)phenyl)urea], for which the EC50 in test [1] turned out to be 1000 nM; in test [2] it was 0.95 nM.
`CS(=N)(=O)c1ccccc1-c1ccc(N2CC[C@@H](NC(=O)Nc3ccc(Cl)cc3F)C2=O)c(F)c1F` (stereo partly drawn) [Example 58]: the figures for the concentration for a half-maximal effect (EC50) in test [1] and in test [2] were 610 nM and 6.3 nM, respectively.
As for `CS(=N)(=O)c1ccccc1-c1ccc(N2CC[C@@H](NC(=O)Nc3ccc(Cl)cc3F)C2=O)c(F)c1F` (stereo partly drawn) [Example 59], the values for the 50% effective concentration (EC50) in test [1] and in test [2] were 140 nM and 1.7 nM, respectively.
With `CC(C)c1cc(-c2ccccc2P(C)(C)=O)ccc1N1CC[C@@H](NC(=O)Nc2ccc(C(F)(F)F)cc2F)C1=O` [Example 60], the EC50 is 120 nM in test [1] and 3.7 nM in test [2].
Turning to `CC(C)c1cc(-c2ccccc2P(C)(C)=O)ccc1N1CC[C@@H](NC(=O)Nc2ncc(Cl)cc2F)C1=O` [Example 61], the values for the EC50 in test [1] and in test [2] were 370 nM and 23 nM, respectively.
For `CP(C)(=O)c1ccccc1-c1ccc(N2CC[C@@H](NC(=O)Nc3cnc(Cl)cn3)C2=O)c(C2CC2)c1` [Example 62], the EC50 in test [1] is 720 nM; in test [2], 31 nM.
Take `CP(C)(=O)c1ccccc1-c1ccc(N2CC[C@@H](NC(=O)Nc3cnc(Cl)cn3)C2=O)c(F)c1F` [Example 63]: the EC50 in test [1] came to 4400 nM; in test [2], 5.67 nM.
Turning to `CP(C)(=O)c1ccccc1-c1ccc(N2CC[C@@H](NC(=O)Nc3ccc(C(F)(F)F)cn3)C2=O)c(F)c1F` [Example 64], the EC50 worked out at 2900 nM in test [1] and 8.8 nM in test [2].
As for `COc1ccc(NC(=O)N[C@@H]2CCN(c3ccc(-c4ccccc4P(C)(C)=O)c(F)c3F)C2=O)cc1` [Example 65], the EC50 in test [1] turned out to be 2600 nM; in test [2] it was 1.2 nM.
For `CS(=N)(=O)c1ccccc1-c1ccc(N2CC[C@@H](NC(=O)Nc3ccc(C(F)(F)F)cc3F)C2=O)c(F)c1F` (stereo partly drawn) [Example 66], the values for the 50% effective concentration (EC50) in test [1] and in test [2] were 580 nM and 4.9 nM, respectively.
Regarding `CCP(=O)(CC)c1ccccc1-c1ccc(N2CC[C@@H](NC(=O)Nc3ncc(Cl)cc3F)C2=O)c(F)c1F` [Example 67], the EC50 in test [1] amounted to 1300 nM; in test [2], 2.48 nM.
As for `CCP(=O)(CC)c1ccccc1-c1ccc(N2CC[C@@H](NC(=O)Nc3ccc(C(F)(F)F)cc3F)C2=O)c(F)c1F` [Example 68], the EC50 is 150 nM in test [1] and 0.53 nM in test [2].
Consider `CP(C)(=O)c1ccccc1-c1ccc(N2CC[C@@H](NC(=O)Nc3ccc(OC(F)(F)F)cc3F)C2=O)c(F)c1F` [Example 69], for which the concentration giving a half-maximal response (EC50) in test [1] was determined as 5000 nM; in test [2], 22 nM.
Turning to `CP(C)(=O)c1c(F)cccc1-c1ccc(N2CC[C@@H](NC(=O)Nc3ccc(Cl)cc3F)C2=O)c(F)c1F` [Example 70], the EC50 in test [1] is 20 nM; in test [2] it was 0.077 nM.
As to `COc1ccc(NC(=O)N[C@@H]2CCN(c3ccc(-c4ccccc4P(C)(C)=O)c(F)c3F)C2=O)c(F)c1` [Example 71], the concentration giving a half-maximal response (EC50) amounted to 1280 nM in test [1] and 2.1 nM in test [2].
As to `CP(C)(=O)c1c(F)cccc1-c1ccc(N2CC[C@@H](NC(=O)Nc3ccc(C(F)(F)F)cc3F)C2=O)c(F)c1F` [Example 72], the half-maximal effective concentration (EC50) in test [1] amounted to 54 nM; in test [2], 0.61 nM.
